The source of these data is US20240285571A1, “METHODS OF TREATING BONE INFECTIONS” (MICROBION CORPORATION, priority 2020, published 2024).

By MIC is commonly meant the least concentration at which growth counts as inhibited.

Common to all, as to format: cell-based
The subject of one assay is S. pneumoniae. Kind of assay: Broth microdilution MIC (Example 5). As to the method: Test and Comparator Agents: The test agents were stored at room temperature until assayed. […] The stock solutions were allowed to stand for at least 1 hr prior to use to auto-sterilize.
TestMedia: Test media were prepared and stored in accordance with guidelines from CLSI (4, 6, 7).
Broth Microdilution MC Testing (Aerobic Bacteria and Yeast): The broth microdilution assay method employed for the susceptibility testing of aerobic bacteria (excluding N. gonorrhoeae which was evaluated by agar dilution) and yeast essentially followed the procedures described by CLSI (3, 4, 7, 8) and employed automated liquid handlers to conduct serial dilutions and liquid transfers. […] These would become the ‘mother plates’ from which ‘daughter’ or test plates would be prepared. The drugs (300 μL at 40× the desired top concentration in the test plates) were dispensed into the appropriate well in Column 1 of the mother plates. The Biomek 2000 was used to make serial two-fold dilutions through Column 11 in the “mother plate”. The wells of Column 12 contained no drug and ultimately served as the organism growth control wells.
The daughter plates were prepared using the Biomek FX which transferred 5 μL of drug solution from each well of a mother plate to the corresponding well of the correct daughter plate in a single step.
A standardized inoculum of each organism was prepared per CLSI methods (3, 7). Isolated colonies of each test isolate were picked from the primary plate and a suspension was prepared to equal a 0.5 McFarland turbidity standard. Standardized suspensions were then diluted […] (1:100 for yeast, 1:20 for bacteria). After dilution, the inoculum suspensions were then transferred to compartments of sterile reservoirs divided by length (Beckman Coulter), and the Biomek 2000 was used to inoculate all plates. Daughter plates were placed on the Biomek 2000 in reverse orientation so that plates were inoculated from low to high drug concentration.
The Biomek 2000 delivered 10 μL of standardized inoculum into each well of the appropriate daughter plate for an additional 1:20 dilution.
Plates were stacked 4 high, covered with a lid on the top plate, placed into plastic bags, and incubated at 35° C. for approximately 24-48 hr for all yeast isolates and 16-24 hr for aerobic bacteria. Plates were viewed from the bottom using a plate viewer. […] MIC endpoints for the test agents and control compounds were read per CLSI criteria (3, 7).

Assay [1] relates to relevant ATCC QC organisms. Kind of assay: Broth microdilution MIC, QC (Example 6). As to the method:
(§1) Test Compounds: The test agents BisEDT (MB-1-B3; Lot No. ED268-1-11-01), MB-2B, and MB-6 were stored at room temperature, in the dark, until assayed. The solvent and diluent for the test agents was DMSO (Sigma; St. Louis, MO; Lot No. SHBB9319V) and the prepared stock concentration was 6,464 μg/mL (101× the final test concentration).
(§2) Test compounds were evaluated at a concentration range of 0.06-64 μg/mL. For Gram-negative test isolates, amikacin and ceftazidime (alone and with clavulanate at a fixed concentration of 4 μg/mL) were evaluated over a concentration range of 0.06-64 μg/mL; meropenem and levofloxacin were evaluated over a concentration range of 0.008-8 μg/mL. For the testing of S. aureus, clindamycin, daptomycin, levofloxacin and vancomycin were evaluated at a concentration range of 0.008-8 μg/mL; linezolid was tested from 0.03-32 μg/mL.
Organisms: The test organisms as shown in Tables 11-15 consisted of clinical isolates from the Micromyx (MMX) repository and reference strains from the American Type Culture Collection (ATCC; Manassas, VA), National Collection of Type Cultures (NCTC; Public Health England, Salisbury, UK), the Network on Antimicrobial Resistance in Staphylococcus aureus (NARSA; BEI Resources, Manassas, VA), and the Centers for Disease Control and Prevention (CDC; Atlanta, GA). The test organisms were maintained frozen at −80° C. Prior to testing, the isolates were cultured on Tryptic Soy Agar with 5% sheep blood (BAP; Becton Dickson [BD]/BBL; Sparks, MD; Lot Nos. 9080650 and 9108563) at 35° C. Relevant ATCC quality control (QC) organisms (Table 16) were included during testing in accordance with CLSI guidelines (3). Further details on the genetic characterization of the isolates where available can be found in Table 17.
(§3) Media: Cation-adjusted Mueller Hinton broth (CAMHB; BD; Lot No. 8190586) was used as the medium for testing (2, 3). For testing daptomycin, calcium was supplemented with […] Ca^2+, resulting in a final concentration of […] Ca^2+ (2, 3).
(§4) MIC Assay Procedure: MIC values were determined using a broth microdilution procedure described by CLSI (2, 3). Automated liquid handlers (Multidrop 384, Labsystems, Helsinki, Finland; Biomek 2000 and Biomek F X, Beckman Coulter, Fullerton CA) were used to conduct serial dilutions and liquid transfers.
(§5) To prepare the drug mother plates, which would provide the serial drug dilutions for the replicate daughter plates, the wells of columns 2 through 12 of standard 96-well microdilution plates (Costar 3795) were filled with 150 μl of the appropriate diluent for each row of drug. The test articles and comparator compounds (300 μl at 101× the highest concentration to be tested) were dispensed into the appropriate wells in column 1. The Biomek 2000 was then used to make 2-fold serial dilutions in the mother plates from column 1 through column 11. The wells of column 12 contained no drug and served as the organism growth control wells for the assay.
(§6) The daughter plates were loaded with 190 μL per well of RPMI using the Multidrop 384. The test panels were prepared on the Biomek FX instrument which transferred 2 μL of drug solution from each well of a mother plate to the corresponding well of each daughter plate in a single step.
(§7) A standardized inoculum of each test organism was prepared per CLSI methods to equal a 0.5 McFarland standard, followed by a dilution of 1:20. The plates were then inoculated with 10 μL of the diluted inoculum using the Biomek 2000 from low to high drug concentration resulting in a final concentration of approximately 5×10^5 CFU/mL.
(§8) Plates were stacked 3-4 high, covered with a lid on the top plate, placed into plastic bags, and incubated at 35° C. for 16 to 20 hr (vancomycin was read for S. aureus after 24 hr incubation time). The MIC was recorded as the lowest concentration of drug that inhibited visible growth of the organism.
For orientation: In broth dilution the organism is exposed to a series of concentrations in liquid medium.

The next assay concerns Escherichia coli. Put plainly: Broth microdilution MIC (Example 6). As to the method:
(§9) Test Compounds: The test agents BisEDT (MB-1-B3; Lot No. ED268-1-11-01), MB-2B, and MB-6 were stored at room temperature, in the dark, until assayed.
(§10) For testing daptomycin, calcium was supplemented with […] Ca^2+, resulting in a final concentration of […] Ca^2+ (2, 3).
(§11) MIC Assay Procedure: MIC values were determined using a broth microdilution procedure described by CLSI (2, 3).
(§12) The Biomek 2000 was then used to make 2-fold serial dilutions in the mother plates from column 1 through column 11. The wells of column 12 contained no drug and served as the organism growth control wells for the assay.
(§13) The test panels were prepared on the Biomek FX instrument which transferred 2 μL of drug solution from each well of a mother plate to the corresponding well of each daughter plate in a single step.
as §7, §8

For another assay, the system named is Klebsiella pneumoniae. Kind of assay: Broth microdilution MIC (Example 6). As to the method: as §9, §10, §11, §12, §13, §7, §8
For another assay, the system named is Pseudomonas aeruginosa. Put plainly: Broth microdilution MIC (Example 6). As to the method:
as §9, §10, §11, §12, §13, §7, §8

The test system of another assay is Acinetobacter baumannii. Kind of assay: Broth microdilution MIC (Example 6). As to the method: as §1, §2, §3, §4, §5, §6, §7, §8

Molecules are shown by their SMILES.

For the compound `COc1cc(Cc2cnc(N)nc2N)cc(OC)c1OC.Cc1cc(NS(=O)(=O)c2ccc(N)cc2)no1` [Trimeth/Sulfa], the MIC against S. pneumoniae (S. pneumoniae MMX 880, LevR SXTR CCR EryR PenR) is listed as 4/76; against S. pneumoniae (S. pneumoniae MMX 937, MemR SXTR CCR EryR PenR) it was 16/304; with S. pneumoniae (S. pneumoniae MMX 3959, CCR EryR), 2/38; in the assay on S. pneumoniae (S. pneumoniae MMX 5440, MemR SXTR CCR EryR PenR) it was 16/304; in the assay on S. pneumoniae (S. pneumoniae MMX 5445, MemR SXTR CCR EryR PenR) it was 8/152; against S. pneumoniae (S. pneumoniae MMX 8133, MemR SXTR CCR EryR PenR), 8/152.
As to `CC(C)(O/N=C(\C(=O)N[C@@H]1C(=O)N2C(C(=O)[O-])=C(C[n+]3ccccc3)CS[C@H]12)c1csc(N)n1)C(=O)O.O=C(O)[C@H]1/C(=C/CO)O[C@@H]2CC(=O)N21` [CAZ + CLAV], the results for the MIC in assay [1] (K. pneumoniae ATCC BAA-1705) and in assay [1] (P. aeruginosa ATCC 27853) were >64/4 and 2/4, respectively.
Consider `CC(C)(O/N=C(\C(=O)N[C@@H]1C(=O)N2C(C(=O)[O-])=C(C[n+]3ccccc3)CS[C@H]12)c1csc(N)n1)C(=O)O.O=C(O)[C@H]1/C(=C/CO)O[C@@H]2CC(=O)N21` [CAZ/CLAV], for which the MIC is >64/4 with Escherichia coli (E. coli ATCC BAA-2471, NDM); 64/4 against Escherichia coli (E. coli CDC 114, ESBL/KPC); >64/4 in the assay with Escherichia coli (E. coli CDC 118, ESBL/NDM); >64/4 against Escherichia coli (E. coli CDC 435, NDM); 16/4 in the assay on Escherichia coli (E. coli CDC 451, KPC); >64/4 in the assay on Escherichia coli (E. coli CDC 503, ESBL/NDM). The MIC in the assay with Escherichia coli (E. coli MMX 5745, KPC) is given as 16/4; against Escherichia coli (E. coli MMX 5755, ESBL), 1/4; in the assay on Klebsiella pneumoniae (K. pneumoniae ATCC BAA-1705, ESBL/KPC) it was >64/4; with Klebsiella pneumoniae (K. pneumoniae CDC 112, KPC), >64/4; in the assay with Klebsiella pneumoniae (K. pneumoniae CDC 113, ESBL/KPC), >64/4; against Klebsiella pneumoniae (K. pneumoniae CDC 115, ESBL/KPC), >64/4. In addition, the MIC was 64/4 against Klebsiella pneumoniae (K. pneumoniae CDC 120, ESBL/KPC); 8 µg/mL in the assay on Klebsiella pneumoniae (K. pneumoniae CDC 126, ESBL/KPC); >64/4 with Klebsiella pneumoniae (K. pneumoniae CDC 129, ESBL/KPC); >64/4 in the assay on Klebsiella pneumoniae (K. pneumoniae CDC 135, ESBL/VIM); >64/4 against Klebsiella pneumoniae (K. pneumoniae CDC 138, ESBL/NDM); >64/4 against Klebsiella pneumoniae (K. pneumoniae CDC 158, ESBL/NDM/OXA). Moreover, the MIC against Pseudomonas aeruginosa (P. aeruginosa isolate CDC 230, β-lactamase type VIM/OXA) is given as 32/4; with Pseudomonas aeruginosa (P. aeruginosa isolate CDC 231, β-lactamase type KPC/OXA) it was >64/4; in the assay with Pseudomonas aeruginosa (P. aeruginosa isolate CDC 241, β-lactamase type IMP/OXA) it was >64/4; against Pseudomonas aeruginosa (P. aeruginosa isolate CDC 246, β-lactamase type NDM/OXA), >64/4; in the assay on Pseudomonas aeruginosa (P. aeruginosa isolate CDC 250, β-lactamase type NDM/OXA), >64/4; against Pseudomonas aeruginosa (P. aeruginosa isolate CDC 356, β-lactamase type KPC), 64/4. In addition, the MIC against Pseudomonas aeruginosa (P. aeruginosa isolate CDC 439, β-lactamase type IMP) was >64/4; against Pseudomonas aeruginosa (P. aeruginosa isolate CDC 444, β-lactamase type VIM), 32/4; in the assay on Pseudomonas aeruginosa (P. aeruginosa isolate CDC 457, β-lactamase type VIM), 64/4; against Pseudomonas aeruginosa (P. aeruginosa isolate CDC 516, β-lactamase type KPC/AmpC) it was 64/4; in the assay on Pseudomonas aeruginosa (P. aeruginosa isolate CDC 518, β-lactamase type KPC/AmpC), 32/4; in the assay on Acinetobacter baumannii (A. baumannii isolate CDC 273, β-lactamase type ESBL/OXA), 64/4. For the same compound, the MIC is reported as >64/4 with Acinetobacter baumannii (A. baumannii isolate CDC 274, β-lactamase type ESBL/OXA); >64/4 in the assay with Acinetobacter baumannii (A. baumannii isolate CDC 275, β-lactamase type ESBL/OXA); >64/4 with Acinetobacter baumannii (A. baumannii isolate CDC 277, β-lactamase type ESBL/OXA); 16/4 with Acinetobacter baumannii (A. baumannii isolate CDC 284, β-lactamase type ESBL/OXA); 64/4 in the assay on Acinetobacter baumannii (A. baumannii isolate CDC 307, β-lactamase type OXA); 64/4 in the assay on Acinetobacter baumannii (A. baumannii isolate CDC 308, β-lactamase type ESBL/OXA). In addition, the MIC with Acinetobacter baumannii (A. baumannii isolate CDC 311, β-lactamase type OXA) was >64/4; in the assay on Acinetobacter baumannii (A. baumannii isolate CDC 312, β-lactamase type OXA) it was >64/4; in the assay on Acinetobacter baumannii (A. baumannii isolate CDC 313, β-lactamase type ESBL/OXA), >64/4; in the assay on Acinetobacter baumannii (A. baumannii isolate NCTC 13304, β-lactamase type OXA) it was >64/4.
